From patent US11806363B1, “Green synthesis of silver nanoparticles using euphorbia dendroides aqueous extract” (King Faisal University, priority 2023, dated 2023)
Converted amounts (≈) assume the structure as drawn.

Columns and labels:
[1] = system: HCT-116 cells; assay: MTT cytotoxicity assay, HCT-116 cells; assay type: cell-based; conditions: Homo sapiens; HCT-116, MTT, 48 h treatment, triplicate, mean ±SD; read-out: IC50 (50% inhibition of cancer cell growth)
[2] = system: HepG2 cells; assay: MTT cytotoxicity assay, HepG2 cells; assay type: cell-based; conditions: Homo sapiens, 48 h treatment, triplicate, mean ±SD, read-out: IC50 (50% inhibition of cancer cell growth)

Compound `COc1cccc2c1C(=O)c1c(O)c3c(c(O)c1C2=O)C[C@@](O)(C(=O)CO)C[C@@H]3O[C@H]1C[C@H](N)[C@H](O)[C@H](C)O1` [DOX, doxorubicin] has an IC50 [1] of 0.86 ± 0.16 µg/mL (≈ 1.58 µM) and an IC50 [2] of 0.38 ± 0.07 µg/mL (≈ 0.699 µM).
